Data as given in patent EP2955182A1, “Pyridazinones for the treatment of cancer” (Max-Planck-Gesellschaft zur Förderung der Wissenschaften …, priority 2014, dated 2015).

These molecules were tested against PDEδ (Homo sapiens, UniProt O43924) (assay: Fluorescence polarization competition binding assay (displacement titration of labeled Atorvastatin-probe)). Details: not given.
From the text: Example C.2: Displacement titrations of labeled Atorvastatin-probe for the determination of KD values:
Table 3. KD values for compounds of general formula (I) as determined by means of fluorescence polarization assay

With `Cc1ccc(-n2nc3c(=O)n(CCCC(=O)NCc4ccccc4)nc(C)c3c2C)cc1` [Compound 42] the Kd was < 30 nM.

Same assay, conditions: fluorescence polarization assay, displacement of fluorescent-tagged Atorvastatin analog from PDEδ

For `Cc1c(Cl)cccc1NC(=O)CCCn1nc(C)c2c(C)n(-c3ccccc3)nc2c1=O` [Compound 29, N-(3-chloro-2-methylphenyl)-4-(3,4-dimethyl-7-oxo-2-phenyl-2H-pyrazolo[3,4-d]pyridazin-6(7H)-yl)butanamide], the Kd was < 30 nM.

Same assay, conditions: fluorescence polarization assay, displacement of fluorescent-tagged Atorvastatin analog from PDEδ; read-out: KD

First: Cc1ccc(-c2nnc(CCCn3c(C)c4cnn(-c5ccccc5)c(=O)c4c3C)o2)cc1 [Compound 23, 5,7-dimethyl-2-phenyl-6-(3-(5-(p-tolyl)-1,3,4-oxadiazol-2-yl)propyl)-2,6-dihydro-1H-pyrrolo[3,4-d]pyridazin-1-one]
Second: Cc1c2cnn(-c3ccccc3)c(=O)c2c(C)n1CCCc1nnc(-c2ccc(F)cc2)o1 [Compound 27, 6-(3-(5-(4-fluorophenyl)-1,3,4-oxadiazol-2-yl)propyl)-5,7-dimethyl-2-phenyl-2,6-dihydro-1H-pyrrolo[3,4-d]pyridazin-1-one]
The Kd of the first is higher: > 1000 nM for the first, 100 to 1000 nM for the second. The second binds more tightly here.

First: Cc1nn(CCCC(=O)NCCc2ccccc2)c(=O)c2nn(-c3ccccc3)c(C)c12 [Compound 36, 4-(3,4-dimethyl-7-oxo-2-phenyl-2H-pyrazolo[3,4-d]pyridazin-6(7H)-yl)-N-phenethylbutanamide]
Second: Cc1nn(CCCC(=O)NCc2ccccc2)c(=O)c2nn(-c3ccccc3)c(C)c12 [Compound 31, N-benzyl-4-(3,4-dimethyl-7-oxo-2-phenyl-2H-pyrazolo[3,4-d]pyridazin-6(7H)-yl)butanamide]
The Kd of the first is lower: < 30 nM for the first, 30 to 100 nM for the second. The first binds more tightly here.

`Cc1c2cnn(-c3ccccc3)c(=O)c2c(C)n1CCCC(=O)NCc1cccc(Cl)c1` [Compound 3, N-(3-chlorobenzyl)-4-(5,7-dimethyl-1-oxo-2-phenyl-1H-pyrrolo[3,4-d]pyridazin-6(2H)-yl)butanamide] and `COc1cccc(CNC(=O)CCCn2c(C)c3cnn(-c4ccccc4)c(=O)c3c2C)c1` [Compound 2, 4-(5,7-dimethyl-1-oxo-2-phenyl-1H-pyrrolo[3,4-d]pyridazin-6(2H)-yl)-N-(3-methoxybenzyl)butanamide] fall in the same range of Kd: 30 to 100 nM for the first, 30 to 100 nM for the second.

`Cc1ccc(CNC(=O)CCCn2nc(C)c3c(C)n(-c4ccccc4)nc3c2=O)cc1` [Compound 35, 4-(3,4-dimethyl-7-oxo-2-phenyl-2H-pyrazolo[3,4-d]pyridazin-6(7H)-yl)-N-(4-methylbenzyl)butanamide] and `COc1ccc(CNC(=O)CCCn2nc(C)c3c(C)n(-c4ccccc4)nc3c2=O)cc1` [Compound 32, 4-(3,4-dimethyl-7-oxo-2-phenyl-2H-pyrazolo[3,4-d]pyridazin-6(7H)-yl)-N-(4-methoxybenzyl)butanamide] fall in the same range of Kd: 30 to 100 nM for the first, 30 to 100 nM for the second.

`Cc1c2cnn(-c3ccccc3)c(=O)c2c(C)n1CCCc1nc(-c2ccccc2)no1` [Compound 16, 5,7-dimethyl-2-phenyl-6-(3-(3-phenyl-1,2,4-oxadiazol-5-yl)propyl)-2,6-dihydro-1H-pyrrolo[3,4-d]pyridazin-1-one] and `Cc1c2cnn(-c3ccccc3)c(=O)c2c(C)n1CCCc1nc(-c2ccc(F)cc2)no1` [Compound 21, 6-(3-(3-(4-fluorophenyl)-1,2,4-oxadiazol-5-yl)propyl)-5,7-dimethyl-2-phenyl-2,6-dihydro-1H-pyrrolo[3,4-d]pyridazin-1-one] fall in the same range of Kd: 100 to 1000 nM for the first, 100 to 1000 nM for the second.

`Cc1ccc(-n2nc3c(=O)n(CCCC(=O)NCc4ccc(OC(C)C)cc4)nc(C)c3c2C)cc1` [Compound 45] and `Cc1ccc(-n2nc3c(=O)n(CCCC(=O)NCCc4ccc(Cl)cc4)nc(C)c3c2C)cc1` [Compound 48, N-(4-chlorophenethyl)-4-(3,4-dimethyl-7-oxo-2-(p-tolyl)-2H-pyrazolo[3,4-d]pyridazin-6(7H)-yl)butanamide] cannot be ordered by Kd: < 30 nM for the first, < 30 nM for the second.

First: Cc1c2cnn(-c3ccccc3)c(=O)c2c(C)n1CCCC(=O)NC1CCCCC1C (stereo not drawn) [Compound 13, 4-(5,7-dimethyl-1-oxo-2-phenyl-1H-pyrrolo[3,4-d]pyridazin-6(2H)-yl)-N-(2-methylcyclohexyl)butanamide]
Second: Cc1c2cnn(-c3ccccc3)c(=O)c2c(C)n1CCCC(=O)NC1CCCC1 [Compound 10, N-cyclopentyl-4-(5,7-dimethyl-1-oxo-2-phenyl-1H-pyrrolo[3,4-d]pyridazin-6(2H)-yl)butanamide]
The Kd of the first is lower: < 30 nM for the first, 30 to 100 nM for the second.

`COc1cccc(CNC(=O)CCCn2nc(C)c3c(C)n(-c4ccccc4)nc3c2=O)c1` [Compound 33, 4-(3,4-dimethyl-7-oxo-2-phenyl-2H-pyrazolo[3,4-d]pyridazin-6(7H)-yl)-N-(3-methoxybenzyl)butanamide] and `COc1ccccc1CNC(=O)CCCn1nc(C)c2c(C)n(-c3ccccc3)nc2c1=O` [Compound 34, 4-(3,4-dimethyl-7-oxo-2-phenyl-2H-pyrazolo[3,4-d]pyridazin-6(7H)-yl)-N-(2-methoxybenzyl)butanamide] fall in the same range of Kd: 30 to 100 nM for the first, 30 to 100 nM for the second.

`Cc1c2cnn(-c3ccccc3)c(=O)c2c(C)n1CCCC(=O)NCc1ccc(Cl)cc1` [Compound 5, N-(4-chlorobenzyl)-4-(5,7-dimethyl-1-oxo-2-phenyl-1H-pyrrolo[3,4-d]pyridazin-6(2H)-yl)butanamide] and `Cc1c2cnn(-c3ccccc3)c(=O)c2c(C)n1CCCC(=O)NCc1ccccc1` [Compound 1, N-benzyl-4-(5,7-dimethyl-1-oxo-2-phenyl-1H-pyrrolo[3,4-d]pyridazin-6(2H)-yl)butanamide] fall in the same range of Kd: 30 to 100 nM for the first, 30 to 100 nM for the second.

`COc1ccc(OC)c(-c2noc(CCCn3c(C)c4cnn(-c5ccccc5)c(=O)c4c3C)n2)c1` [Compound 19, 6-(3-(3-(2,5-dimethoxyphenyl)-1,2,4-oxadiazol-5-yl)propyl)-5,7-dimethyl-2-phenyl-2,6-dihydro-1H-pyrrolo[3,4-d]pyridazin-1-one] and `COc1ccc(-c2noc(CCCn3c(C)c4cnn(-c5ccccc5)c(=O)c4c3C)n2)cc1` [Compound 18, 6-(3-(3-(4-methoxyphenyl)-1,2,4-oxadiazol-5-yl)propyl)-5,7-dimethyl-2-phenyl-2,6-dihydro-1H-pyrrolo[3,4-d]pyridazin-1-one] cannot be ordered by Kd: > 1000 nM for the first, > 1000 nM for the second.

First: COc1ccccc1-c1nnc(CCCn2c(C)c3cnn(-c4ccccc4)c(=O)c3c2C)o1 [Compound 25, 6-(3-(5-(2-methoxyphenyl)-1,3,4-oxadiazol-2-yl)propyl)-5,7-dimethyl-2-phenyl-2,6-dihydro-1H-pyrrolo[3,4-d]pyridazin-1-one]
Second: COc1ccc(-c2nnc(CCCn3c(C)c4cnn(-c5ccccc5)c(=O)c4c3C)o2)cc1 [Compound 24, 6-(3-(5-(4-methoxyphenyl)-1,3,4-oxadiazol-2-yl)propyl)-5,7-dimethyl-2-phenyl-2,6-dihydro-1H-pyrrolo[3,4-d]pyridazin-1-one]
The Kd of the first is lower: 100 to 1000 nM for the first, > 1000 nM for the second.

First: Cc1ccc(-n2nc3c(=O)n(CCCC(=O)NC4CCC(C)CC4)nc(C)c3c2C)cc1 (stereo not drawn) [Compound 53, 4-(3,4-dimethyl-7-oxo-2-(p-tolyl)-2H-pyrazolo[3,4-d]pyridazin-6(7H)-yl)-N-(4-methylcyclohexyl)butanamide]
Second: Cc1ccc(-n2nc3c(=O)n(CCCC(=O)NC4CC4)nc(C)c3c2C)cc1 [Compound 51, N-cyclopropyl-4-(3,4-dimethyl-7-oxo-2-(p-tolyl)-2H-pyrazolo[3,4-d]pyridazin-6(7H)-yl)butanamide]
The Kd of the first is lower: < 30 nM for the first, 100 to 1000 nM for the second. The first binds more tightly here.

`Cc1c2cnn(-c3ccccc3)c(=O)c2c(C)n1CCCC(=O)NCc1ccco1` [Compound 7, 4-(5,7-dimethyl-1-oxo-2-phenyl-1H-pyrrolo[3,4-d]pyridazin-6(2H)-yl)-N-(furan-2-ylmethyl)butanamide] and `Cc1c2cnn(-c3ccccc3)c(=O)c2c(C)n1CCCC(=O)NCc1cccs1` [Compound 6, 4-(5,7-dimethyl-1-oxo-2-phenyl-1H-pyrrolo[3,4-d]pyridazin-6(2H)-yl)-N-(thiophen-2-ylmethyl)butanamide] fall in the same range of Kd: 100 to 1000 nM for the first, 100 to 1000 nM for the second.

Going from `Cc1c2cnn(-c3ccccc3)c(=O)c2c(C)n1CCCc1nc2ccccc2n1Cc1ccccc1` [Compound 15, 6-(3-(1-benzyl-1H-benzo[d]imidazol-2-yl)propyl)-5,7-dimethyl-2-phenyl-2,6-dihydro-1H-pyrrolo[3,4-d]pyridazin-1-one] to `Cc1ccc(-c2noc(CCCn3c(C)c4cnn(-c5ccccc5)c(=O)c4c3C)n2)cc1` [Compound 17, 5,7-dimethyl-2-phenyl-6-(3-(3-(p-tolyl)-1,2,4-oxadiazol-5-yl)propyl)-2,6-dihydro-1H-pyrrolo[3,4-d]pyridazin-1-one], the Kd rises from < 30 nM to > 1000 nM. The first binds more tightly here.

`Cc1c2cnn(-c3ccccc3)c(=O)c2c(C)n1CCCC(=O)NC1CC1` [Compound 9, N-cyclopropyl-4-(5,7-dimethyl-1-oxo-2-phenyl-1H-pyrrolo[3,4-d]pyridazin-6(2H)-yl)butanamide] and `Cc1c2cnn(-c3ccccc3)c(=O)c2c(C)n1CCCc1nnc(-c2ccc(C(F)(F)F)cc2)o1` [Compound 26, 5,7-dimethyl-2-phenyl-6-(3-(5-(4-(trifluoromethyl)phenyl)-1,3,4-oxadiazol-2-yl)propyl)-2,6-dihydro-1H-pyrrolo[3,4-d]pyridazin-1-one] fall in the same range of Kd: 100 to 1000 nM for the first, 100 to 1000 nM for the second.

First: Cc1ccc(-n2nc3c(=O)n(CCCC(=O)NC4CCCC4)nc(C)c3c2C)cc1 [Compound 52, N-cyclopentyl-4-(3,4-dimethyl-7-oxo-2-(p-tolyl)-2H-pyrazolo[3,4-d]pyridazin-6(7H)-yl)butanamide]
Second: Cc1ccc(-n2nc3c(=O)n(CCCC(=O)NCc4ccccn4)nc(C)c3c2C)cc1 [Compound 40, 4-(3,4-dimethyl-7-oxo-2-(p-tolyl)-2H-pyrazolo[3,4-d]pyridazin-6(7H)-yl)-N-(pyridin-2-ylmethyl)butanamide]
The Kd of the first is lower: < 30 nM for the first, 100 to 1000 nM for the second.

First: Cc1ccc(-n2nc3c(=O)n(CCCC(=O)NCc4cccnc4)nc(C)c3c2C)cc1 [Compound 41, 4-(3,4-dimethyl-7-oxo-2-(p-tolyl)-2H-pyrazolo[3,4-d]pyridazin-6(7H)-yl)-N-(pyridin-3-ylmethyl)butanamide]
Second: Cc1ccc(-n2nc3c(=O)n(CCCC(=O)NCCc4cccc(Cl)c4)nc(C)c3c2C)cc1 [Compound 49, N-(3-chlorophenethyl)-4-(3,4-dimethyl-7-oxo-2-(p-tolyl)-2H-pyrazolo[3,4-d]pyridazin-6(7H)-yl)butanamide]
The Kd of the first is higher: 100 to 1000 nM for the first, < 30 nM for the second.
